In ChEMBL document CHEMBL5532651, “HDAC specificity and kinase off-targeting by purine-benzohydroxamate anti-hematological tumor agents” (Eur J Med Chem, 2024):
Active and inactive are the calls of the source. The calls are words filed in the database; no cut-off is given here.

Legend:
Histone deacetylase 1 [1] = target: T1, Histone deacetylase 1 (Homo sapiens, UniProt Q13547); assay: Inhibition of HDAC1 in human U-937 cells assessed as increase in acetyl-histone H3 level at IC50 incubated for 48 hrs by Western blot analysis; type: cell-based
[2] = Stability in human liver microsome assessed as intrinsic clearance at 1 uM measured for 60 mins by LC-MS/MS analysis; type: ADME; details: liver microsomes, read-out: CLH
MCF7 = assay: cells; type: functional, cell-based; details: Homo sapiens
[3] = target: T2, Protein deacetylase HDAC6 (Homo sapiens) (UniProt Q9UBN7); assay: Inhibition of HDAC6 in human U-937 cells assessed as increase in acetyl-histone H3 level at IC50 incubated for 48 hrs by Western blot analysis; type: cell-based
T2 sequence (whole entry): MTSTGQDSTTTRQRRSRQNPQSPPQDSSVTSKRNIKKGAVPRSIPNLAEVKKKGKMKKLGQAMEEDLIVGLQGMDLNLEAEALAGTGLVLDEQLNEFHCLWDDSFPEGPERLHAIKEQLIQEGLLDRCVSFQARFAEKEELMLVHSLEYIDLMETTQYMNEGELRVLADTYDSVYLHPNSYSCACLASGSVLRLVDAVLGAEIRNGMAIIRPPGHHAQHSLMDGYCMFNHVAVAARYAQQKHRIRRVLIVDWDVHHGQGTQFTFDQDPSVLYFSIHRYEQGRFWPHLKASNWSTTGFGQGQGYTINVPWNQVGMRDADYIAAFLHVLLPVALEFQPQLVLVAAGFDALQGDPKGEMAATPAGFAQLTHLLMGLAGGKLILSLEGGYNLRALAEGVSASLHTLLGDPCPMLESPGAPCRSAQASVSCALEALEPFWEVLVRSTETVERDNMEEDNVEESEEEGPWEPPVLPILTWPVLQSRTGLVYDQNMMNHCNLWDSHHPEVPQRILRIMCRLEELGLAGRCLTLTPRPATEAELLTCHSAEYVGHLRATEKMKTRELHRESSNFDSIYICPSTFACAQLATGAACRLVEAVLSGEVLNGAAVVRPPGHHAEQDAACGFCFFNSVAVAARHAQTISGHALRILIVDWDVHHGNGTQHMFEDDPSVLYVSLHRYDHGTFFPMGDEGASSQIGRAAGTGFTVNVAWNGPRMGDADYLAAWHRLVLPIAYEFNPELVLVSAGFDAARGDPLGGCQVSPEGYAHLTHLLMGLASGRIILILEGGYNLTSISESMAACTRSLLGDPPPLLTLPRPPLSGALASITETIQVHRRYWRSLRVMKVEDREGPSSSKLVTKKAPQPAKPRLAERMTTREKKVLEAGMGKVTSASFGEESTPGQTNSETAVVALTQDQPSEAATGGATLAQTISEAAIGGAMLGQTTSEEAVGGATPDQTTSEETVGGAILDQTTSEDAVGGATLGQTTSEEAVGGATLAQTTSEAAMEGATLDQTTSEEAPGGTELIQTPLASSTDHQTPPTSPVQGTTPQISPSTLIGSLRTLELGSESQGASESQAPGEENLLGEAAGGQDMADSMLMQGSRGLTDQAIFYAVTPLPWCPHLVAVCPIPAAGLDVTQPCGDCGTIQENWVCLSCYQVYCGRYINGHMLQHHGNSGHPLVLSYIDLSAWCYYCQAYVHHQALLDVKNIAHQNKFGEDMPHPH

Histone deacetylase 1 [4] = target: T1, Histone deacetylase 1; assay: Inhibition of HDAC1 in human U-937 cells assessed as increase in acetyl-alpha-tubulin level at IC50 incubated for 48 hrs by Western blot analysis; type: cell-based
[5] = target: T3, Protein deacetylase HDAC6 (Homo sapiens, UniProt Q9UBN7); assay: Inhibition of full-length recombinant human HDAC6 expressed in baculovirus infected Sf9 cells using RHKK(Ac)AMC as substrate preincubated for 5 to 10 mins followed by substrate addition measured after 2 hrs by fluorescence based assay
T3 sequence (Q9UBN7 whole entry): T2 sequence (whole entry)

[6] = target: T2, Protein deacetylase HDAC6 (Homo sapiens); assay: Inhibition of HDAC6 in human Jurkat cells assessed as increase in acetyl-histone H3 level at IC50 incubated for 48 hrs by Western blot analysis; type: cell-based
Histone deacetylase 1 [7] = target: T1, Histone deacetylase 1; assay: Inhibition of full-length recombinant human HDAC1 expressed in baculovirus infected Sf9 cells using RHKK(Ac)AMC as substrate preincubated for 5 to 10 mins followed by substrate addition measured after 2 hrs by fluorescence based assay
[8] = Selectivity index, ratio of IC50 for human MCF7 cells to IC50 for human Jurkat cells; type: functional
[9] = Selectivity index, ratio of IC50 for human MCF7 cells to IC50 for human NAMALVA cells; type: functional
[10] = Selectivity index, ratio of IC50 for human leukocytes cells to IC50 for human NAMALVA cells; type: functional
U-937 [11] = assay: Cytotoxicity against human U-937 cells assessed as cell growth inhibition incubated for 24 to 72 hrs by MTT assay; type: functional, cell-based; details: time lower 24.0 hrs, time upper […]
[12] = target: T2, Protein deacetylase HDAC6 (Homo sapiens); assay: Inhibition of HDAC6 in human NAMALVA cells assessed as increase in acetyl-histone H3 level at IC50 incubated for 48 hrs by Western blot analysis; type: cell-based
CYP2C9 = CYP2C9 (Homo sapiens, UniProt P11712); assay: Inhibition of CYP2C9 in liver microsomes (unknown origin) at 10 uM incubated for 10 mins relative to control; type: ADME, Microsome
HCT-116 = assay: cells; details: Homo sapiens
[13] = Stability in mouse liver microsome assessed as intrinsic clearance at 1 uM measured for 60 mins by LC-MS/MS analysis; type: ADME; details: liver microsomes, read-out: CLH
Histone deacetylase 1 [14] = target: T1, Histone deacetylase 1; assay: Inhibition of HDAC1 in human Jurkat cells assessed as increase in acetyl-alpha-tubulin level at IC50 incubated for 48 hrs by Western blot analysis; type: cell-based
CYP2D6 = CYP2D6 (Homo sapiens, UniProt P10635); assay: Inhibition of CYP2D6 in liver microsomes (unknown origin) at 10 uM incubated for 10 mins relative to control; type: ADME, Microsome
[15] = Stability in human liver microsome assessed as half life at 1 uM measured for 60 mins by LC-MS/MS analysis; type: ADME; details: liver microsomes
NAMALVA [16] = assay: Potency index, ratio of Vorinostat IC50 to test compound IC50 for human NAMALVA cells assessed as cell growth inhibition incubated for 24 to 72 hrs by MTT assay; type: functional; details: time 24-72 hrs
NAMALVA [17] = assay: cells; details: Homo sapiens
Histone deacetylase 1 [18] = target: T1, Histone deacetylase 1; assay: Inhibition of HDAC1 in human NAMALVA cells assessed as increase in acetyl-histone H3 level at IC50 incubated for 48 hrs by Western blot analysis; type: cell-based
[19] = target: T2, Protein deacetylase HDAC6 (Homo sapiens); assay: Inhibition of HDAC6 in human U-937 cells assessed as increase in acetyl-alpha-tubulin level at IC50 incubated for 48 hrs by Western blot analysis; type: cell-based
[20] = target: T2, Protein deacetylase HDAC6 (Homo sapiens); assay: Inhibition of HDAC6 in human NAMALVA cells assessed as increase in acetyl-alpha-tubulin level at IC50 incubated for 48 hrs by Western blot analysis; type: cell-based
NAMALVA [21] = assay: Inhibition of cell proliferation of human NAMALVA cells assessed as reduction in Ki-67 expression at IC50 measured after 48 hrs by flow cytometry; type: functional, cell-based
U-937 [22] = assay: Induction of apoptosis in human U-937 cells at IC50 measured after 48 hrs by flow cytometry; type: functional, cell-based

T1 sequence (Q13547 whole entry): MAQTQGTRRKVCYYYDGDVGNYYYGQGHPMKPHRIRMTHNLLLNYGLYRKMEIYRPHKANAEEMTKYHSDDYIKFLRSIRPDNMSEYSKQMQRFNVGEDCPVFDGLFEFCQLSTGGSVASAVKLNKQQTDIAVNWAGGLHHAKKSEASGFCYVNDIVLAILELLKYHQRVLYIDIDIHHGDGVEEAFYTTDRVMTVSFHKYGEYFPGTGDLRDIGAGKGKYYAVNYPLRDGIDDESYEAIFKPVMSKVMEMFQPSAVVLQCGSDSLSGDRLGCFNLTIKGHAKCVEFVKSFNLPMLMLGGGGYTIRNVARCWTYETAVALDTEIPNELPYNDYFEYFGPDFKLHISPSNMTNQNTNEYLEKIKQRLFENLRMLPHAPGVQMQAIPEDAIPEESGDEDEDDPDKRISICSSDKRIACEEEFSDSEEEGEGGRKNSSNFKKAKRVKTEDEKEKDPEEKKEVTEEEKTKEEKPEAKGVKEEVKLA
Chain of CYP2C9 (P11712 whole entry): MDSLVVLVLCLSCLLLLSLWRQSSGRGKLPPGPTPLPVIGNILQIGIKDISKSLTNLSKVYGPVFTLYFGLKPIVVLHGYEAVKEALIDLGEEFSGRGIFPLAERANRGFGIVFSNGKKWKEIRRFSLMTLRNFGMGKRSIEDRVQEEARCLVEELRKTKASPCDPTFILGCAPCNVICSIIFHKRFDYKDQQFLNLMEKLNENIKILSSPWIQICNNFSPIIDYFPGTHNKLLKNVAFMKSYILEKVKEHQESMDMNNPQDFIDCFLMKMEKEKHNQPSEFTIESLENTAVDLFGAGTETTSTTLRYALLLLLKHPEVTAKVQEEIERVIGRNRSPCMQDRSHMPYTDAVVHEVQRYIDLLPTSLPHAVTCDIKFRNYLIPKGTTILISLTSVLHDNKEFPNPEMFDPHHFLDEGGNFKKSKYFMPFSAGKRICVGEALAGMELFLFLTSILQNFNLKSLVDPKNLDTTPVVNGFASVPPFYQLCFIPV
Chain of CYP2D6 (P10635 whole entry): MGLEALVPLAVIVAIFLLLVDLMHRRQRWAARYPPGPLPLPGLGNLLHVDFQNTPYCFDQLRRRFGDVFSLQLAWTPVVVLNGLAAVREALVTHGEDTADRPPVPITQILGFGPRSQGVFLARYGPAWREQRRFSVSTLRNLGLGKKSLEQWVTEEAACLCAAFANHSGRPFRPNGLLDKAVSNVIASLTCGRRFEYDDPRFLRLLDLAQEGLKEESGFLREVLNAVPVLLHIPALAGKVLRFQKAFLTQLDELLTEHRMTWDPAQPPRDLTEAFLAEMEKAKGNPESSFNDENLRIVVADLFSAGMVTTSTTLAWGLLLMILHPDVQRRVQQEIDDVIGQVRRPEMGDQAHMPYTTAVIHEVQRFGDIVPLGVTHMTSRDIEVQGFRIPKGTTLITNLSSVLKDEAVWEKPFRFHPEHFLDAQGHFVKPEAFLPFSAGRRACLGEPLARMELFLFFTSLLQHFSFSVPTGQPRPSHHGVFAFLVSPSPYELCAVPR

inhibition (Histone deacetylase 1 [1])	microsomal CLint at 1 µM [2]	IC50 (MCF7)	inhibition [3]	inhibition (Histone deacetylase 1 [4])	IC50 [5]	inhibition [6]	IC50 (Histone deacetylase 1 [7])	inhibition [12]	inhibition at 10 min, 10 µM (CYP2C9)	IC50 (HCT-116)	microsomal CLint at 1 µM [13]	inhibition (Histone deacetylase 1 [14])	inhibition at 10 min, 10 µM (CYP2D6)	half-life at 1 µM [15]	SMILES	Ratio IC50 [8]	Ratio IC50 [9]	Ratio IC50 [10]	inhibition (U-937 [11])	Ratio IC50 (NAMALVA [16])	further results
Active	< 6 µL/min/mg	9300 nM	Active	Active	341 nM	Active	189 nM	Active	52%	9300 nM	20 µL/min/mg	Active	10%	> 2 h	O=C(NO)c1ccc(Cn2cnc3c(Nc4ccc(F)c(Cl)c4)ncnc32)cc1	83	83	>=100	Dose-Dependent Effect	<=10	IC50 (NAMALVA [17]): 40 nM; inhibition (Histone deacetylase 1 [18]): Active; inhibition [19]: Active; inhibition [20]: Active; inhibition (NAMALVA [21]): Active; Activity (U-937 [22]): Active
Active	< 6 µL/min/mg	19500 nM	Active	Active	232 nM	Active	118 nM	Active	34%	8300 nM	14 µL/min/mg	Active	10%	> 2 h	COc1ccc(Nc2ncnc3c2ncn3Cc2ccc(C(=O)NO)cc2)cc1	83	83	>=100	Dose-Dependent Effect	<=10	IC50 (NAMALVA [17]): 100 nM; inhibition (Histone deacetylase 1 [18]): Active; inhibition [19]: Active; inhibition [20]: Active; inhibition (NAMALVA [21]): Active; Activity (U-937 [22]): Active
